Some test systems named below: SNB-78 CNS; MCF7 breast; HCC-2998 colon; M19-MEL melanoma; HS 578T breast; MDA-MB-435; PC-3 prostate; BT-549 breast; DU-145 prostate; T-47D breast.
Common to all, as to experiment: growth of human tumour cells (NCI), 48 h

Structures are written as SMILES. Values joined by “and” are separate entries in the source; they are usually repeats but may differ in a detail not shown here. Equal entries are not always repeated.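 Cells were grown in 96-well plates and exposed to each compound for 48 hours at five concentrations; endpoints were interpolated linearly between bracketing concentrations, or set to the highest concentration if not reached. At the GI50, growth is halved. TGI marks complete inhibition of growth.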 Bounds are passed on as bounds.

In PubChem BioAssay (NCI) one finds TGI and GI50 data, which are given here for 17 compounds.

Consider `COc1cc(/C=N/N=C(\N)NO)ccc1O`, for which the TGI in the test with SNB-78 CNS is > 100 µM.

With `CCN(CC)CCCC(C)Nc1c2ccc(Cl)cc2nc2cc(Cl)ccc12` (stereo not given), the TGI came to 9.49 µM in the test on MCF7 breast, 5.49 µM in the test on HCC-2998 colon, 26.6 µM in the test on SNB-78 CNS and 9.97 µM in the test on M19-MEL melanoma.

For the compound `CC(C)C(=O)Nc1ccc(-c2nc(-c3cccc(OCCN4CCOCC4)c3)c(-c3ccnc(Br)c3)[nH]2)cc1`, the GI50 with HS 578T breast was 1040 nM; in the test with MDA-MB-435, 2920 nM; in the test with PC-3 prostate, 3080 nM; in the test with MCF7 breast it was 1890 nM; with BT-549 breast, 2820 nM; with HCC-2998 colon it was 3210 nM. For the same compound, the GI50 with DU-145 prostate is 4480 nM; in the test on T-47D breast, 2680 nM. The TGI with HS 578T breast stood at 3.69 µM; with MDA-MB-435 it was 10 µM; in the test on PC-3 prostate, 14.5 µM; in the test with MCF7 breast, 4.92 µM; with BT-549 breast, 17.3 µM; with HCC-2998 colon, 11.4 µM. For the same compound, the TGI with DU-145 prostate was > 100 µM; in the test with T-47D breast, 34.2 µM.

On to `OC(c1ccccc1)C1CC2C=CC1C2` (stereo not given), for which the TGI with SNB-78 CNS and in the test with M19-MEL melanoma was > 100 µM in each case.

`CN(CC(=O)O)CC(=O)O`: the TGI with HS 578T breast, in the test with MDA-MB-435, with PC-3 prostate, with MCF7 breast, in the test with BT-549 breast and in the test on HCC-2998 colon was > 100 µM in each case. For the same compound, the TGI in the test with DU-145 prostate and with T-47D breast was > 100 µM each time.

As for `COc1ccc(N2C(=O)C(=O)N(C)C2=O)c2ccccc12`, the TGI with HS 578T breast, with MDA-MB-435, with PC-3 prostate, in the test on MCF7 breast, with HCC-2998 colon and in the test with DU-145 prostate was > 10 µM each time. Moreover, the TGI in the test with T-47D breast is > 10 µM.

As for `COC1=CC(=O)c2c(c(COC(C)=O)cn2C)C1=O`, the TGI was determined as 0.28 µM in the test with MDA-MB-435; 1.35 µM with PC-3 prostate; 2.5 µM in the test with MCF7 breast; 0.0911 µM in the test on BT-549 breast; 0.247 µM in the test on DU-145 prostate; 3.67 µM in the test with T-47D breast.

Regarding `CC[C@@]1(O)C(=O)OCc2c1cc1n(c2=O)Cc2cc3c(CN(C)C)c(O)ccc3nc2-1`, the GI50 was 1270 nM and 5800 nM and 1880 nM with HS 578T breast; 71.3 nM and 108 nM and 24.3 nM in the test on MDA-MB-435; 42.5 nM and 260 nM in the test with PC-3 prostate; < 10 nM in the test with MCF7 breast; 86.7 nM with SNB-78 CNS; 603 nM with M19-MEL melanoma. For the same compound, the GI50 in the test with T-47D breast was < 11.7 nM and 18.9 nM and 18.6 nM. Further, the TGI with HS 578T breast was 96.6 µM and 12.2 µM and 39.6 µM; in the test on PC-3 prostate it was > 90.1 µM and 14.8 µM and 35 µM; with SNB-78 CNS it was 2.49 µM; in the test on M19-MEL melanoma, 5.17 µM and 1.36 µM.

In the case of `CC1(CO)C(O)CCC2(C)C1C(O)CC1CC3CC12CCC3(O)CO` (stereo not given), the TGI in the test with MCF7 breast is > 225 µM; with HCC-2998 colon it was > 225 µM; in the test with SNB-78 CNS, > 225 µM; in the test on M19-MEL melanoma it was > 153 µM.

As to `Clc1ccc(C2CC(c3cccc(Nc4ccncc4)c3)=NN2c2ccccc2)cc1` (stereo not given), the GI50 is 1620 nM in the test with MDA-MB-435; 1600 nM in the test on PC-3 prostate; 1650 nM in the test with MCF7 breast; 1720 nM with BT-549 breast; 1600 nM with HCC-2998 colon; 1730 nM with DU-145 prostate. The GI50 with T-47D breast is 2100 nM. Also, the TGI in the test with MDA-MB-435 stood at 3.07 µM; in the test on PC-3 prostate it was 3.12 µM; in the test on MCF7 breast, 3.44 µM; in the test on BT-549 breast, 3.38 µM; in the test on HCC-2998 colon it was 3.06 µM; with DU-145 prostate, 3.27 µM. This compound registered a TGI with T-47D breast of 4.86 µM.

Turning to `O=c1ccc2c(Cl)cccc2o1`, the TGI in the test on HS 578T breast, in the test on MDA-MB-435, with PC-3 prostate, in the test on MCF7 breast, in the test with BT-549 breast and in the test with HCC-2998 colon was > 100 µM throughout. Further, the TGI with DU-145 prostate and in the test with T-47D breast was > 100 µM in each case.

Consider `CNCCCn1c2c(c3ccc(Cl)cc3c1=O)C(=O)c1cc(OC)cnc1-2`, for which the GI50 is 1070 nM in the test with MDA-MB-435, 1020 nM with PC-3 prostate, 645 nM in the test with BT-549 breast and 331 nM in the test with DU-145 prostate. The TGI worked out at 2.32 µM in the test on MDA-MB-435, 2.33 µM with PC-3 prostate, 2.07 µM in the test on BT-549 breast and 1.74 µM in the test on DU-145 prostate.

For the compound `CC(C)NC(=O)OCc1nnn2c1CCC2`, the TGI in the test on HCC-2998 colon, in the test on SNB-78 CNS and in the test with M19-MEL melanoma was > 100 µM throughout.

As to `CSC1=C(SC)C(=O)c2cn(C)c(=O)cc2C1=O`, the TGI in the test with HS 578T breast is > 26.5 µM; with MDA-MB-435, 3.35 µM; in the test with PC-3 prostate, 26.2 µM; with MCF7 breast, 4.49 µM; in the test with BT-549 breast it was 3.71 µM; in the test with HCC-2998 colon, 35.8 µM. For the same compound, the results for the TGI with DU-145 prostate and in the test with T-47D breast were 21 µM and 3.99 µM, respectively.

Regarding `CC(C(=O)NCCNC(=O)CCCC(=O)N(C)O)C(=O)NCCNC(=O)CCCC(=O)N(C)O`, the TGI in the test with HS 578T breast, in the test on MDA-MB-435, in the test on PC-3 prostate, in the test on MCF7 breast, in the test with HCC-2998 colon and in the test with DU-145 prostate was > 100 µM in each case. The TGI in the test on T-47D breast is > 100 µM.

With `CC(C)=CC1C(COC(=O)c2ccccc2Cl)C1(C)C` (stereo not given), the TGI in the test on HS 578T breast was 60.1 µM; in the test on MDA-MB-435, > 100 µM; in the test with PC-3 prostate it was > 100 µM; with BT-549 breast, 95.1 µM; with DU-145 prostate, > 100 µM; in the test with T-47D breast, > 100 µM.

For the compound `C1=Nc2ccccc2Cn2nncc21`, the TGI in the test with HCC-2998 colon and in the test with M19-MEL melanoma was > 100 µM throughout.
